According to a melting point compilation (Tetko et al.; mined from patent text by program, amines drawn as free bases though some values may be those of a salt):

Row | SMILES | melting point [°C]
1 | CCOC(=O)c1cnc2sc(C)c(C)n12 | 60 to 61
2 | Cc1nc(NC(=O)c2cnn3c(C(F)(F)F)cc(-c4ccc(Cl)c(Cl)c4)nc23)sc1S(N)(=O)=O | 307
3 | O=c1[nH]c2ccccc2n1CC1CCCN(CC(O)C2COc3ccccc3O2)C1 (stereo not given) | 154
4 | COc1ccc(C(=O)N2CCC(N3CCc4ccccc43)c3ccccc32)cc1OC (stereo not given) | 121 to 123
5 | CC(=O)OC(CN(Cc1ccccc1)Cc1ccccc1)c1cc(C#N)c2c(c1)CCN2C(C)=O (stereo not given) | 108 to 109
6 | CCN(CC)C1=CC(=O)C(=O)C=C1N(CC)CC | 100 to 103
7 | COc1c(C(=O)Nc2ccc(N(C(C)=O)S(C)(=O)=O)cc2)cc(N2CCC(=O)NC2=O)cc1C(C)(C)C | 228 to 229
8 | Cc1[nH]c(-c2cccc(C(F)(F)F)c2)nc1C=O | 180
9 | CN(C)C(=S)ON1C(=O)C2CCCCC2C1=O (stereo not given) | 124 to 126
10 | COc1ccc(C(=O)NCc2ccc3c(c2)C(=O)N(C2CCC(=O)NC2=O)C3=O)cc1 (stereo not given) | 215 to 217
11 | CCOC1CN(Cc2cccc(OC)c2)Cc2cc(OC)c(O)cc21 (stereo not given) | 134 to 135
12 | CCOC(=O)C1(CCCN)CCCCC1(O)c1ccccc1 (stereo not given) | 130 to 133
13 | C[C@H](NC(=O)Cc1cc(F)cc(F)c1)C(=O)N[C@@H]1C(=O)Nc2ccccc2S[C@@H]1c1ccc(Br)s1 | 139 to 140
14 | NC(=O)CCN1CCN(C2Cc3cc(Cl)ccc3Sc3cc(F)ccc32)CC1 (stereo not given) | 179 to 182
15 | O=C(O)c1cn(CCc2cccc(C(F)(F)F)c2)c2cc(C3CC3)nn2c1=O | 200 to 205
16 | C(#Cc1ccccn1)CCN1CC=C(c2ccccc2)CC1 | 87.5 to 88.5
17 | O=C(Nc1nnn[nH]1)c1cc2c(cc1[N+](=O)[O-])OCO2 | 279
18 | CCN1CCN(c2ccc([N+](=O)[O-])cc2OC)CC1 | 84 to 85
19 | COc1ccccc1CNc1cc(C(N)=O)c([N+](=O)[O-])cc1[N+](=O)[O-] | 198 to 202
20 | Fc1ccc(-n2nc(N3CCNCC3)c3ccccc32)cc1 | 85 to 87
21 | CCCCn1c(=O)c2c(ncn2S(=O)(=O)CCCC)n(CCCC)c1=O | 55 to 57
22 | CC(=O)N1N=C(C=Cc2ccc([N+](=O)[O-])cc2)c2cc3c(cc2CC1C)OCO3 (stereo not given) | 188 to 190

Row | SMILES | melting point [°C]
23 | CC1(C)Oc2ccc(C#N)cc2C(Oc2ccc(O)nn2)C1(C)O (stereo not given) | 131 to 134
24 | O=C(Nc1cccc(F)c1)c1cccc(Oc2cccc(C(F)(F)F)c2)n1 | 74 to 75
25 | NC(=O)c1cc2c(Oc3ccc(-n4ccnc4)cc3)cncc2s1 | 310 to 312
26 | CC(=O)Nc1nc(C)c(S(=O)(=O)NCCN(C)C)s1 | 143
27 | CCCCCN(CCC12CC3CC(CC(C3)C1)C2)C(=O)NCC(C)(C)Cc1ccncc1 | 82.5 to 84.9
28 | Cn1ncc2c1SSSSS2 | 57 to 60
29 | COc1c(C)c(C(=O)c2ccc3nc(C)oc(=O)c3c2)n2ccccc12 | 218
30 | COc1cc2ncnc(Nc3cccc(Cl)c3F)c2cc1OC1CCN(C(=O)OC(C)(C)C)CC1 | 192 to 194
31 | O=C(OC1CCC1)c1ccc(O)c(C(=O)O)c1 | 200
32 | COc1c(C)c(C)c(OC)c(N)c1N | 107 to 110
33 | Cc1oc(-c2ccccc2)nc1COc1ccc(COc2ccc(O)cc2CC(=O)O)cc1 | 194 to 195
34 | O=C(O)[C@@H]1Cc2cc(O)c(O)cc2CN1C(=O)c1ccccc1 | 189 to 192
35 | COc1ccc(C2CCCCC2)cc1-c1csc(NC(=O)N2CCN(C3CCN(S(=O)(=O)C4CC4)CC3)CC2)n1 | 138
36 | O=C(O)c1cc(-c2ccc([N+](=O)[O-])cc2)c(-c2ccc(F)cc2)s1 | 227 to 229
37 | O=C1CC2=C(CCN1)c1ccccc1Sc1ccccc12 | 195 to 198
38 | COC(=O)CCC(=O)c1ccc(C)cc1OCC1CO1 (stereo not given) | 61.5 to 63
39 | CC(=CC(=O)O)c1ccc([N+](=O)[O-])cc1 | 167 to 169
40 | CNC(=O)n1nc(Oc2ncc(C(F)(F)F)cc2Cl)c(Cl)c1C | 81 to 83
41 | COc1ccc(N2CCN(C3CCNCC3)C2=O)cc1 | 140
42 | NC(=O)COc1ccc(CN2C(=O)C3(COc4cc5c(cc43)CCO5)c3ccccc32)cc1 (stereo not given) | 215 to 216
43 | CN(C)Cc1ccc(CSCCNC(=NC(=O)CNN2C(=O)c3ccccc3C2=O)N(C)N=Cc2ccccc2)o1 | 115

More lines, now with the values ahead:

Row | melting point [°C] | SMILES
44 | 155 | COc1ccccc1CNc1ccc2c(C(=N)c3ccc(F)cc3)cccc2n1
45 | 194 to 196 | Cc1cc(Nc2c(C#N)cnc3cc(-c4csc(C5OCCO5)c4)ccc23)ccc1OCc1ccccn1
46 | 75 to 80 | CCc1cc(C(=O)c2ccccc2Cl)c(-n2c(CNC(=O)c3ccc(Cl)c(Cl)c3)nnc2C(F)(F)F)s1
47 | 127 to 128 | COc1c(C=NO)c(=O)n(C)c(=O)n1C
48 | 146 to 147 | COC(=O)C1CCc2cc(OCc3nc(-c4ccccc4)oc3C)ccc2C1O (stereo not given)
49 | 256 to 258 | O=c1[nH]c2ncc(-c3ccc(O)cc3)nc2n1CC1CCOC1 (stereo not given)
50 | 49 to 50 | CCCOCC(=O)c1ccc([N+](=O)[O-])cc1
51 | 292 to 293 | CC(C)(CNC(=O)c1ncc[nH]1)c1ccc(C(=O)Nc2cn3cc(C(F)(F)F)ccc3n2)cc1
52 | > 300 | CC(C)/C=c1\[nH]c(=O)/c(=C/c2c[nH]c3ccccc23)[nH]c1=O
53 | 82 to 84 | CCC(CC)Nc1cc(C)nc(Cl)c1[N+](=O)[O-]
54 | 184 to 186 | COc1c(Cl)ccc(-c2nc(Cl)c3c(ncn3C)n2)c1F
55 | 198 | CC(=O)C1C(=O)N(C(=O)NC(=O)c2ccccc2)c2ccccc21 (stereo not given)
56 | 172 | O=C1NC(O)c2cccn2-c2ccsc21 (stereo not given)
57 | 215 to 218 | CC(C)CS(=O)(=O)N1C[C@@H](C)C[C@H](Nc2ncccc2-c2cnc3[nH]ccc3n2)C1
58 | 164 to 166 | CC1(C)SCc2ccccc2C1N=CNC#N (stereo not given)
59 | 96 to 99 | COc1cc2c(cc1OC)C(CSc1nnnn1C)NCC2 (stereo not given)
60 | 220 to 225 | Cn1cc(C(=O)Nc2nc(-c3ccco3)c(C(=O)c3ccccc3)s2)ccc1=O
61 | 71.6 to 72.5 | C=C(C)c1ccccc1C(=O)O
62 | 173 to 175 | CC(=O)NCC1CN(c2ccc(N3CCN(C4N=NC(=O)S4)CC3)c(F)c2)C(=O)O1 (stereo not given)
63 | 151 to 153 | Cc1ccc(-c2nc3ccc(C#N)cn3c2CN(C)C(=O)CC(C)C)cc1
64 | 112 | CCOC(=O)C(C)(Cc1cccc(OCCN2CCCCC2)c1)S(=O)(=O)c1ccc(OC)cc1 (stereo not given)
65 | 183 to 186 | NC(=O)N(O)CCNC(=O)c1cccc(S(=O)(=O)c2ccc(Cl)cc2)c1
66 | 98 to 100 | CC(=O)N1CC(CCN2CCC(c3ccc(C(F)(F)F)cc3)CC2)c2ccccc21 (stereo not given)
67 | 156 to 157 | Cn1nccc1NC(=O)N1CCN(c2nc(-c3ccccc3F)cs2)CC1
68 | 214 to 215 | O=C(c1cccc(Nc2nc(-c3ccccc3)nc3ccccc23)c1)N1CCN(c2ncc(Cc3ccccc3)cn2)CC1
69 | 203 to 206 | CCOC(=O)c1c(N)c2cccnc2n(C)c1=O
70 | 226 to 228 | COC(=O)c1cc2ccc(C(=O)NCCN3CCOCC3)cc2[nH]1
